The record followed here is patent US20050060764A1, “Mouse model for bone metabolism” (priority 2003, published 2005).

Common to all, as to type: cell-based
The test system of data set [1] is RANKL mRNA. Kind of data set: Antisense inhibition of RANKL mRNA expression followed by PTH treatment in primary mouse osteoblast cells: dose response (Table 8). As to conditions: 10 nM PTH last 2 h, relative to PTH alone. How it is done:
Primary mouse osteoblasts were prepared from calvaria of neonatal mice purchased from Charles River Laboratories. […] Cells were not passaged. Cells were seeded onto 6-well plates (Falcon-Primaria #353846) at a density of 50,000 cells/well for use in antisense oligonucleotide transfection.
In a further embodiment of this invention, the effect of RANKL antisense oligonucleotides and PTH treatment on the expression of RANKL was determined in primary osteoblast cells isolated from mice skull caps.
ISIS 143624 ([…], SEQ ID NO: 348) was used as a control oligonucleotide. […] All cytidine residues are 5-methylcytidines.
Primary osteoblastic cells were transfected for 24 hours with either Isis 180819 (SEQ ID NO: 185) or the control oligo ISIS 143624 (SEQ ID NO: 348) at a dose of […], 125 nM, 250 nM, or 500 nM by the methods described herein but using the transfection reagent FuGENE 6 (Roche Applied Science, Indianapolis, Ind.). During the last 2 hours of oligonucleotide transfection, the cells were treated with 10 nM PTH. The RNA was then harvested and the expression levels of […] were measured by the methods described herein. The results are expressed as percent inhibition relative to PTH treatment alone and represent the average from three experiments.

The subject of data set [2] is mouse RANKL mRNA. Kind of data set: Antisense inhibition of mouse RANKL mRNA levels in C2C12 cells, quantitative real-time PCR (Table 2). On the set-up: concentration or dose not given beside the values. As to conditions: averages from three experiments. A digest of the protocol: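 C2C12 cells seeded at ~10,000 cells/cm^2, treated with antisense oligonucleotides (all C as 5-methylcytidine) in triplicate and harvested 16-24 h later. Mouse RANKL mRNA quantified by real-time RT-PCR with a FAM/TAMRA probe, with mouse GAPDH (JOE/TAMRA probe) as reference.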
On the technique in general: Quantitative PCR measures a nucleic acid by following its amplification.

The test system of data set [3] is RANKL mRNA. As to the kind of experiment: Antisense inhibition of RANKL mRNA expression followed by PTH treatment in primary mouse osteoblast cells: dose response (Table 8). As to conditions: 63 nM oligonucleotide 24 h, 10 nM PTH last 2 h, relative to PTH alone.
For data set [4], the system named is mouse RANKL mRNA. Kind of data set: Antisense inhibition of mouse RANKL mRNA in C2C12 cells: dose response (Table 5). As to conditions: relative to untreated control. The procedure:
Cells were seeded into 24-well plates (Falcon-353047 at a density of ˜10,000 cells/cm^2 for use in antisense oligonucleotide transfection.
Cells are treated and data are obtained in triplicate. […] Cells were harvested 16-24 hours after oligonucleotide treatment.
Probes and primers to mouse RANKL were designed to hybridize to a mouse RANKL sequence, using published sequence information (GenBank accession number AF013170.1, incorporated herein as SEQ ID NO:ll). For mouse RANKL the PCR primers were: • forward primer: […] (SEQ ID NO:12) • reverse primer: […] (SEQ ID NO: 13) and • the PCR probe was: FAM-[…]-TAMRA (SEQ ID NO: 14) where FAM is the fluorescent reporter dye and TAMRA is the quencher dye. For mouse GAPDH the PCR primers were: • forward primer: […](SEQ ID NO:15) • reverse primer: […](SEQ ID NO:16) and the • PCR probe was: 5′ JOE-[…]-TAMRA 3′ (SEQ ID NO: 17) where JOE is the fluorescent reporter dye and TAMRA is the quencher dye.
In accordance with the present invention, a subset of the antisense oligonucleotides in Example 16 was further investigated in dose-response studies. The oligonucleotides used in this investigation were ISIS 180812 (SEQ ID NO: 178), ISIS 180814 (SEQ ID NO: 180), ISIS 180819 (SEQ ID NO: 185), ISIS 180828 (SEQ ID NO: 194) and the control oligonucleotide ISIS 101757 ([…], SEQ ID NO: 355). […] All cytidine residues are 5-methylcytidines.
C2C12 cells were treated with the oligonucleotides at 10, 50, 75, 100, and 150 nM as described in other examples herein. […] The results are expressed as percent inhibition relative to the untreated control. The data, shown in Table 5, are averages from two experiments and illustrate the oligonucleotides of the present invention are able to downregulate RANKL mRNA expression in a dose-dependent manner.

Strand notation (5' to 3'): a small letter for the sugar, then the base; units joined by * are phosphorothioate-linked, units joined directly phosphodiester-linked; [ ] holds rarer units or linkages, { } end groups; capitals alone tell only the bases. e = 2'-O-(2-methoxyethyl) (MOE); [5mC] = 5-methylcytosine; d = 2'-deoxy (DNA)

For “180819 (antisense eT*eG*e[5mC]*eA*eG*dG*dT*d[5mC]*d[5mC]*d[5mC]*dA*dG*d[5mC]*dG*d[5mC]*eA*eA*eT*eG*eT) [compound 180819]”, the “% RANKL mRNA inhibition” value in data set [1] (125 nM oligonucleotide 24 h) worked out at 39%; in data set [1] (250 nM oligonucleotide 24 h), 71%; in data set [1] (500 nM oligonucleotide 24 h) it was 85%; in data set [3], 19%. In data set [2], the “% INHIB (inhibition of mouse RANKL mRNA levels)” value worked out at 66%. Besides, the “% Inhibition of RANKL mRNA” value in data set [4] (10 nM oligonucleotide) is 41%; in data set [4] (50 nM oligonucleotide), 39%; in data set [4] (75 nM oligonucleotide), 57%; in data set [4] (100 nM oligonucleotide), 71%; in data set [4] (150 nM oligonucleotide) it was 75%.
